Source: publication PMC9221546, “New Phenylglycinamide Derivatives with Hybrid Structure as Candidates for New Broad-Spectrum Anticonvulsants” (Cells, 2022)
Like-named read-outs stand apart in the source and are kept apart here.

Tests used:
[1] = PAMPA permeability (Pre-coated PAMPA Plate System Gentest); assay type: in vitro ADME
Source text: Caffeine (CFN) and norfloxacin (NFX) were used as the high- and low-permeable references, respectively.

TRPV1 (VR1) (h) = biological target: T1, TRPV1 (VR1) (h) (Homo sapiens, UniProt Q8NER1); assay: TRPV1 (VR1) (h) antagonist effect functional assay; assay type: cell-based; conditions: human recombinant CHO cells, read-out: % Inhibition of control agonist response, TRPV1 (antagonist effect)
T1 construct: host or cells: CHO
T1 sequence (Q8NER1 whole entry): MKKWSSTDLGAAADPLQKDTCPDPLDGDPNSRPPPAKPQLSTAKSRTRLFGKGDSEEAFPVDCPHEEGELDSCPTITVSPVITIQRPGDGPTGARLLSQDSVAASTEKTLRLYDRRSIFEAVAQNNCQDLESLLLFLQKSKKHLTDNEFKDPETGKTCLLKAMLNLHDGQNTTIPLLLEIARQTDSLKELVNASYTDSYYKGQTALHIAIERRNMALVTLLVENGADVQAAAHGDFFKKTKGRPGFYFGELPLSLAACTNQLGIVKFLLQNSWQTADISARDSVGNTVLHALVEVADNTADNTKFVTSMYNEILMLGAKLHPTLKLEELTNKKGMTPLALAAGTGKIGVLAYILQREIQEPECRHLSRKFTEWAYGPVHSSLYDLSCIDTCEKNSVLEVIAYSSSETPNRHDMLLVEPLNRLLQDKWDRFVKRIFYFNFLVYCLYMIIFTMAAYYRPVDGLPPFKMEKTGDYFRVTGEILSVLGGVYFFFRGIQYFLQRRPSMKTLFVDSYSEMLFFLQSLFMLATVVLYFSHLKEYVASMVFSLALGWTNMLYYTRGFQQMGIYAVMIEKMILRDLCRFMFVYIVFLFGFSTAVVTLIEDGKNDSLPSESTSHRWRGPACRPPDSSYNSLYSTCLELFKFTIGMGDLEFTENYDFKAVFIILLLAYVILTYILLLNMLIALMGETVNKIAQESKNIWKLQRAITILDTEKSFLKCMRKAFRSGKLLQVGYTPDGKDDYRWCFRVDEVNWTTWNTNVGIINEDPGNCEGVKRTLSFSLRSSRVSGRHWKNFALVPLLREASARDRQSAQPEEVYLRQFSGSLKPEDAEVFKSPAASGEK
Procedure: Binding/functional studies were carried out commercially in Eurofins Laboratories (Poitiers, France) and Eurofins Panlabs Discovery Services Taiwan, Ltd. (New Taipei City, Taiwan) using testing procedures that were reported previously (for details see Table S2).
Table S2. Radioligand binding and functional assays. […]
Assays were performed commercially in Eurofins Laboratories (Poitiers, France) or Eurofins Panlabs Discovery Services Taiwan, Ltd. (New Taipei City, Taiwan).
Table S3. In vitro TRPV1 channel antagonist activity for compounds 45–66 (concentration of 100 µM). […]
Cmpd % Inhibition of control Cmpd % Inhibition of control agonist responsea agonist responsea
*Source: human recombinant CHO cells. a Results showing activity higher than 50% are considered to represent […]
variability of the sign al around the control level. Assays were performed commercially in Eurofins Laboratories

[2] = system: MES-induced seizures in mice; assay: Maximal electroshock seizure (MES) test; assay type: in vivo
Procedure: (§1) Adult male Albino Swiss mice that weighed between 22 and 26 g were used in the in vivo studies. They were housed under standardized housing conditions in colony cages and had free access to food as well as tap water. The animals were left to adapt under laboratory conditions for 7 days. All procedures involving animals and their care were performed in accordance with the current European Community and Polish legislation on animal experimentation.
(§2) In the initial screening studies, four mice per group were randomly assigned to each experimental group (each mouse was used only once). To evaluate the ED50 or TD50 values, 3–4 groups that consisted of eight animals were injected with various doses of tested compounds. The protective indexes (PIs) for the compounds that were investigated and reference ASDs were calculated by dividing the TD50 value, as determined in the chimney test (or rotarod test), by the respective ED50 value, as determined in the MES, scPTZ, or 6 Hz (32 mA or 44 mA) tests (PI = TD50/ED50). The PIs is a measure of the potential therapeutic window of the tested agent.
(§3) All substances were suspended in Tween 80 (1% aqueous solution) and administered i.p. as a single injection at a dose of 10 mL/kg. On each day of experimentation, fresh solutions were prepared. The results are summarized in Table S1 (screening data) and Table 2 (ED50, TD50, and PI values, see Section 3 Results and Discussion).
(§4) The detailed in vivo procedures are described elsewhere: the maximal electroshock seizure test (MES), the subcutaneous pentylenetetrazole seizure test (scPTZ), the 6 Hz psychomotor seizure model (32 mA and 44 mA), and the chimney test.
(§5) The basic animal seizure models such as the MES, 6 Hz (32 mA or 44 mA), and the scPTZ are still a standard in the discovery and development of new ASDs. In vivo screening approaches enable the identification of compounds with unidentified and potentially novel mechanisms of action besides substances with well-established pharmacodynamics. Bearing in mind the aforementioned facts, compounds 45–66 were initially studied in the MES test and in the 6 Hz seizure model (32 mA) after intraperitoneal (i.p.) administration at a screening dose of 100 mg/kg in mice at a time point of 0.5 h (the screening group consisted of four mice, the results obtained are summarized in Table S1). It should be stressed that the MES test is an experimental model of human tonic–clonic epilepsy as well as partial convulsions with or without secondary generalization, the 6 Hz model (32 mA) corresponds to human focal epilepsy, whereas the scPTZ test relates to human generalized absence or myoclonic seizures.
(§6) We also established the median toxic doses (TD50) in the chimney test 0.5 h post i.p. administration of these compounds. Both the aforementioned parameters enabled the calculation of the protective indexes (PIs).

[3] = Chimney test (acute neurological deficit); conditions: mouse, in vivo, ip, mice
Procedure: as §2, §3, §4
We also established the median toxic doses (TD50) in the chimney test 0.5 h post i.p. administration of these compounds. […]

[4] = system: scPTZ-induced seizures in mice; assay: Subcutaneous pentylenetetrazole (scPTZ) seizure test; assay type: in vivo; conditions: 100 mg/kg i.p., 0.5 h
Procedure: as §1, §2, §3, §4, §5

[5] = system: 6 Hz (32 mA) seizures in mice; assay: 6 Hz (32 mA) psychomotor seizure model; assay type: in vivo; conditions: Mus musculus, ip; for responders at 100 mg/kg: 100 mg/kg i.p., 0.5 h
Procedure: as §1, §2, §3, §4, §5, §6

| SMILES | Pe (permeability coefficient) ± SD [1] | inhibition at 100 µM (TRPV1 (VR1) (h)) [%] | protection in MES screening ([2]; 100 mg/kg i.p., 0.5 h, four mice) [%] | responders at 100 mg/kg ([2]; Mus musculus, ip, 100 mg/kg i.p., 0.5 h, read-out: MES screening: number of mice protected/number of mice tested (converted)) [%] | ED50 ([2]; Mus musculus, ip, mice, pretreatment time 0.5 h, (95% confidence limits)) [mg/kg] | TD50 at 0.5 h [3] [mg/kg] | scPTZ screening: number of mice protected/number of mice tested [4] | responders at 100 mg/kg ([5]; four mice, read-out: protection in 6 Hz (32 mA) screening) [%] | responders at 100 mg/kg ([5]; read-out: 6 Hz (32 mA) screening: number of mice protected/number of mice tested (converted)) [%] | ED50 ([5]; mice, pretreatment time 0.5 h, (95% confidence limits)) [mg/kg] |
| --- | --- | --- | --- | --- | --- | --- | --- | --- | --- | --- |
| Cn1c(=O)c2c(ncn2C)n(C)c1=O [CFN, Caffeine, reference compound] | 12.22 ± 0.94 10^−6 cm/s |  |  |  |  |  |  |  |  |  |
| CC(=O)NC(C(=O)N1CCN(c2ccccc2)CC1)c1ccccc1 (stereo not shown) [Compound 45, N-(2-oxo-1-phenyl-2-(4-phenylpiperazin-1-yl)ethyl)acetamide] |  | 36.1 | 75 | 75 | 125 | 268 | 0/4 | 75 | 75 | 81.6 |
